# In patent publication US9181218B2, “Compounds for improved stem cell differentiation into hepatocytes” (Hoffmann-La Roche Inc., priority 2013, dated 2015):
# System: interferon-stimulated genes (ISGs)
# Assay: Microarray analysis of iCell Hepatocytes treated with the compound of example 1
# Type: cell-based, Human
# Source text: iCell Hepatocytes treated with the compound of example 1 results in the up and down-regulation of a host of genes; including a kinetic effect on interferon-stimulated gene (ISGs) expression. See FIGS. 15-I and 15-II, 16-I and 16-II and 18 and Table 1.
structure (smiles),measurement,setting,value
"O=C(NCc1cccc(F)c1)c1cccc2nc(-c3c(NC[C@@H](O)c4ccccc4)cc[nH]c3=O)[nH]c12 [Example 1, 2-[4-((S)-2-hydroxy-2-phenyl-ethylamino)-2-oxo-1,2-dihydro-pyridin-3-yl]-3H-benzoimidazole-4-carboxylic acid 3-fluoro-benzylamide]",ADAM19 Raw Est Fold Change,2 HOUR,2.77
same,AES Raw Est Fold Change,2 HOUR,2.07
same,AKT3 Raw Est Fold Change,2 HOUR,−1.76
same,ASNS Raw Est Fold Change,2 HOUR,1.80
same,BCL3 Raw Est Fold Change,2 HOUR,−1.44
same,BUB1 Raw Est Fold Change,2 HOUR,−20.72
same,C10orf10 Raw Est Fold Change,2 HOUR,−3.72
same,CD80 Raw Est Fold Change,2 HOUR,−13.65
same,CD300LF Raw Est Fold Change,2 HOUR,5.42
same,CEBPD Raw Est Fold Change,2 HOUR,−1.29
same,CSNK1D Raw Est Fold Change,2 HOUR,1.10
same,DDIT4 Raw Est Fold Change,2 HOUR,2.67
same,DRAP1 Raw Est Fold Change,2 HOUR,1.17
same,EFNB2 Raw Est Fold Change,2 HOUR,−1.63
same,EHHADH Raw Est Fold Change,2 HOUR,−1.16
same,EPAS1 Raw Est Fold Change,2 HOUR,−2.61
same,ETV7 Raw Est Fold Change,2 HOUR,−2.54
same,FGF2 Raw Est Fold Change,2 HOUR,−1.76
same,GOLGA3 Raw Est Fold Change,2 HOUR,1.45
same,GTPBP2 Raw Est Fold Change,2 HOUR,−1.29
same,HLA-C Raw Est Fold Change,2 HOUR,−4.87
same,ISGF3G Raw Est Fold Change,2 HOUR,−1.17
same,JAK1 Raw Est Fold Change,2 HOUR,−5.55
same,JUNB Raw Est Fold Change,2 HOUR,−6.01
same,KAL1 Raw Est Fold Change,2 HOUR,−2.61
same,KPNB1 Raw Est Fold Change,2 HOUR,1.14
same,MAX Raw Est Fold Change,2 HOUR,3.74
same,MPO Raw Est Fold Change,2 HOUR,−3.18
same,PCMT1 Raw Est Fold Change,2 HOUR,−1.10
same,PHF11 Raw Est Fold Change,2 HOUR,−1.80
same,PHF15 Raw Est Fold Change,2 HOUR,1.74
same,PI4K2B Raw Est Fold Change,2 HOUR,−1.08
same,PIM3 Raw Est Fold Change,2 HOUR,−1.19
same,PXK Raw Est Fold Change,2 HOUR,1.17
same,RHOH Raw Est Fold Change,2 HOUR,−14.71
same,SCARB2 Raw Est Fold Change,2 HOUR,1.50
same,SOCS1 Raw Est Fold Change,2 HOUR,−4.13
same,SOCS3 Raw Est Fold Change,2 HOUR,−9.95
same,TXNIP Raw Est Fold Change,2 HOUR,−2.04
same,ABHD5 Raw Est Fold Change,24 HOUR,−1.43
same,ADM Raw Est Fold Change,24 HOUR,−1.81
same,AKAP12 Raw Est Fold Change,24 HOUR,3.33
same,ALCAM Raw Est Fold Change,24 HOUR,−1.24
same,AMPH Raw Est Fold Change,24 HOUR,−3.29
same,ARHGDIB Raw Est Fold Change,24 HOUR,−1.72
same,ARHGEF3 Raw Est Fold Change,24 HOUR,−1.32
same,ATF3 Raw Est Fold Change,24 HOUR,−3.06
same,AXL Raw Est Fold Change,24 HOUR,−6.82
same,B4GALT5 Raw Est Fold Change,24 HOUR,−1.87
same,BAG1 Raw Est Fold Change,24 HOUR,1.26
same,BCL3 Raw Est Fold Change,24 HOUR,−3.11
same,BHMT Raw Est Fold Change,24 HOUR,5.84
same,BLZF1 Raw Est Fold Change,24 HOUR,−1.26
same,BST2 Raw Est Fold Change,24 HOUR,−1.70
same,BTG1 Raw Est Fold Change,24 HOUR,−1.16
same,BUB1 Raw Est Fold Change,24 HOUR,−33.18
same,C1S Raw Est Fold Change,24 HOUR,−1.62
same,C4orf32 Raw Est Fold Change,24 HOUR,−7.20
same,C4orf33 Raw Est Fold Change,24 HOUR,3.95
same,C10orf10 Raw Est Fold Change,24 HOUR,−2.71
same,CASP4 Raw Est Fold Change,24 HOUR,−5.09
same,CASP5 Raw Est Fold Change,24 HOUR,−3.00
same,CCND3 Raw Est Fold Change,24 HOUR,−1.81
same,CD38 Raw Est Fold Change,24 HOUR,−10.02
same,CD47 Raw Est Fold Change,24 HOUR,−1.52
same,CEBPD Raw Est Fold Change,24 HOUR,−2.58
same,CHD6 Raw Est Fold Change,24 HOUR,1.16
same,CHST12 Raw Est Fold Change,24 HOUR,−1.21
same,CLCN6 Raw Est Fold Change,24 HOUR,−1.26
same,CREB3L3 Raw Est Fold Change,24 HOUR,−3.22
same,CRYM Raw Est Fold Change,24 HOUR,2.03
same,CSDA Raw Est Fold Change,24 HOUR,−2.38
same,CTSL Raw Est Fold Change,24 HOUR,−1.28
same,CX3CL1 Raw Est Fold Change,24 HOUR,2.73
same,CXCL10 Raw Est Fold Change,24 HOUR,1.71
same,CYBA Raw Est Fold Change,24 HOUR,−1.64
same,CYP1B1 Raw Est Fold Change,24 HOUR,−2.71
same,DDX17 Raw Est Fold Change,24 HOUR,−1.56
same,DNAPTP6 Raw Est Fold Change,24 HOUR,1.34
same,DRAP1 Raw Est Fold Change,24 HOUR,1.29
same,EFNB2 Raw Est Fold Change,24 HOUR,−1.46
same,EGR1 Raw Est Fold Change,24 HOUR,−2.86
same,EHHADH Raw Est Fold Change,24 HOUR,1.80
same,EMP1 Raw Est Fold Change,24 HOUR,−5.94
same,EPAS1 Raw Est Fold Change,24 HOUR,−2.84
same,ETS2 Raw Est Fold Change,24 HOUR,−1.73
same,ETV6 Raw Est Fold Change,24 HOUR,−1.37
same,ETV7 Raw Est Fold Change,24 HOUR,−3.88
same,FAM125B Raw Est Fold Change,24 HOUR,−1.54
same,FBXO6 Raw Est Fold Change,24 HOUR,3.00
same,FFAR2 Raw Est Fold Change,24 HOUR,−7.50
same,FKBP1B Raw Est Fold Change,24 HOUR,−1.90
same,FKBP5 Raw Est Fold Change,24 HOUR,−1.39
same,FLT1 Raw Est Fold Change,24 HOUR,−1.75
same,FNDC3B Raw Est Fold Change,24 HOUR,−1.67
same,FNDC4 Raw Est Fold Change,24 HOUR,−1.59
same,FUBP1 Raw Est Fold Change,24 HOUR,−1.50
same,FUT4 Raw Est Fold Change,24 HOUR,−1.89
same,G6PC Raw Est Fold Change,24 HOUR,4.22
same,GALNT2 Raw Est Fold Change,24 HOUR,−5.18
same,GBP2 Raw Est Fold Change,24 HOUR,−1.83
same,GBP4 Raw Est Fold Change,24 HOUR,−3.07
same,GCH1 Raw Est Fold Change,24 HOUR,1.17
same,GK Raw Est Fold Change,24 HOUR,−2.50
same,GLUL Raw Est Fold Change,24 HOUR,1.13
same,GNAI1 Raw Est Fold Change,24 HOUR,1.43
same,GOLGA3 Raw Est Fold Change,24 HOUR,−1.24
same,GTF2F1 Raw Est Fold Change,24 HOUR,1.28
same,GTPBP1 Raw Est Fold Change,24 HOUR,−1.24
same,HEG1 Raw Est Fold Change,24 HOUR,−3.64
same,HIF1A Raw Est Fold Change,24 HOUR,−1.47
same,HK2 Raw Est Fold Change,24 HOUR,−1.88
same,HLA-DPA1 Raw Est Fold Change,24 HOUR,−2.10
same,HLA-DPB1 Raw Est Fold Change,24 HOUR,−2.11
same,ICAM1 Raw Est Fold Change,24 HOUR,−6.60
same,IER3 Raw Est Fold Change,24 HOUR,−2.60
same,IFI16 Raw Est Fold Change,24 HOUR,−6.86
same,IFI27 Raw Est Fold Change,24 HOUR,−1.56
same,IFIT1 Raw Est Fold Change,24 HOUR,3.58
same,IFIT3 Raw Est Fold Change,24 HOUR,1.88
same,IFITM1 Raw Est Fold Change,24 HOUR,−3.11
